As usually defined, the inhibition is the drop in the measured response relative to a control, in per cent.

This test has as its target T1, purified human SIRT1 (Homo sapiens, UniProt Q96EB6).
T1 sequence (Q96EB6 1-747): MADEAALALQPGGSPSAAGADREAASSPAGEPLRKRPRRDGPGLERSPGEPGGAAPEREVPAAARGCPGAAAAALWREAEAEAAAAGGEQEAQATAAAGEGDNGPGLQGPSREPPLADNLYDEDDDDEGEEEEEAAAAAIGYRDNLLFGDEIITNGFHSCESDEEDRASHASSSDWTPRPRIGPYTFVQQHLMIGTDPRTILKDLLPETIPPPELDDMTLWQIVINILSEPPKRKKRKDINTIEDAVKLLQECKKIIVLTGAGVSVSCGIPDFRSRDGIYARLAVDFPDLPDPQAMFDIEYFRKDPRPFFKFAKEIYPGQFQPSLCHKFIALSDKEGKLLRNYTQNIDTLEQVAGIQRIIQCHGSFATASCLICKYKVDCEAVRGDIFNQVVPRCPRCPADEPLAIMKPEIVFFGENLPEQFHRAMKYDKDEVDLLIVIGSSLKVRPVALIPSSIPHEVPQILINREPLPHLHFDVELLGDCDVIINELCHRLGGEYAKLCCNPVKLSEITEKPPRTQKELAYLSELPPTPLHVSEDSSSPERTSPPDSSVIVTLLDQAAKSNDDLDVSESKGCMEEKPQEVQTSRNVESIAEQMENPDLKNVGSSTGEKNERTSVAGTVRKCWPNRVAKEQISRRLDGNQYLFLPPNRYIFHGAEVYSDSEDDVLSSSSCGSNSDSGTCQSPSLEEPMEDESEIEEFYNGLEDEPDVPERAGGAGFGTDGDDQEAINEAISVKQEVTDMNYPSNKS
Briefly: SIRT1 inhibitor screen (mobility shift assay, p53 substrate). To be noted: 2 ng/μl SIRT1, 3 μM p53 substrate; for inhibition at 5 µM / percent inhibition of SIRT1 at 5 μM: 5 μM compound; for inhibition at 5 µM: read-out: percent inhibition of SIRT1 at 5 μM; for inhibition at 50 µM / percent inhibition of SIRT1 at 50 μM: 50 μM compound; for inhibition at 50 µM: read-out: percent inhibition of SIRT1 at 50 μM. The test is classed as biochemical. How it is done: The NatProd Collection library (MicroSource Discovery Systems, Inc. Gaylordsville, Conn.) in ten source plates was screened at two doses (50 μM and 5 μM final in the reaction mixture, duplicate for each dose). The inhibitory activity of the compounds was assessed against 2 ng/μ1 purified human SIRT1 using 3 μM p53 as a substrate. The assay was a mobility shift assay based on charge differences before and after electrophoretic separation of product from fluorescently labeled substrate read using a Caliper EZ Reader (Perkin Elmer, Boston, Mass.). All reactions took place in the presence of excess nicotinamide adenine dinucleotide and the known SIRT1 inhibitor suramin was used as a control.

For the compound `CC1=C(O)C(=O)C=C2C1=CC=C1[C@@]2(C)CC[C@@]2(C)[C@@H]3C[C@](C)(C(=O)O)CC[C@]3(C)CC[C@]12C` [Celastrol], the inhibition at 5 µM came out at 101% and the inhibition at 50 µM was 100%.
On the same counts, the results for `Cc1c(O)c(O)cc2c1CC=C1[C@@]2(C)CC[C@@]2(C)[C@@H]3C[C@](C)(C(=O)O)CC[C@]3(C)CC[C@]12C` [Dihydrocelastrol] are 84% and 99%.
As to `O=C(O[C@@H]1Cc2c(O)cc(O)cc2O[C@@H]1c1ccc(O)c(O)c1)c1cc(O)c(O)c(O)c1` [Epicatechin monogallate], the “percent inhibition of SIRT1 at 5 μM” value came to 66 and the “percent inhibition of SIRT1 at 50 μM” value came to 99.
The corresponding values for `O=C(O[C@@H]1Cc2c(O)cc(O)cc2O[C@@H]1c1cc(O)c(O)c(O)c1)c1cc(O)c(O)c(O)c1` [Epigallocatechin-3-monogallate] are 72 and 99.

These data come from patent US11312695B2, “Nutrients to enhance load-induced muscle hypertrophy” (The Regents of the University of California, priority 2020, dated 2022).
